In PMC9388600, “Uncovering the roles of dihydropyrimidine dehydrogenase in fatty-acid induced steatosis using human cellular models” (Scientific Reports, 2022):
Positions count from the first letter of the chain named. pIC50: −log10 of the molar value.

Tests used:
[1] = target: T1, Dihydropyrimidine dehydrogenase (DPYD) (Homo sapiens, UniProt Q12882); assay: uracil accumulation in media of primary human hepatocytes treated with inhibitor, LC/MS/MS (endogenous DPYD); type: cell-based
T1 sequence (Q12882 4-1025): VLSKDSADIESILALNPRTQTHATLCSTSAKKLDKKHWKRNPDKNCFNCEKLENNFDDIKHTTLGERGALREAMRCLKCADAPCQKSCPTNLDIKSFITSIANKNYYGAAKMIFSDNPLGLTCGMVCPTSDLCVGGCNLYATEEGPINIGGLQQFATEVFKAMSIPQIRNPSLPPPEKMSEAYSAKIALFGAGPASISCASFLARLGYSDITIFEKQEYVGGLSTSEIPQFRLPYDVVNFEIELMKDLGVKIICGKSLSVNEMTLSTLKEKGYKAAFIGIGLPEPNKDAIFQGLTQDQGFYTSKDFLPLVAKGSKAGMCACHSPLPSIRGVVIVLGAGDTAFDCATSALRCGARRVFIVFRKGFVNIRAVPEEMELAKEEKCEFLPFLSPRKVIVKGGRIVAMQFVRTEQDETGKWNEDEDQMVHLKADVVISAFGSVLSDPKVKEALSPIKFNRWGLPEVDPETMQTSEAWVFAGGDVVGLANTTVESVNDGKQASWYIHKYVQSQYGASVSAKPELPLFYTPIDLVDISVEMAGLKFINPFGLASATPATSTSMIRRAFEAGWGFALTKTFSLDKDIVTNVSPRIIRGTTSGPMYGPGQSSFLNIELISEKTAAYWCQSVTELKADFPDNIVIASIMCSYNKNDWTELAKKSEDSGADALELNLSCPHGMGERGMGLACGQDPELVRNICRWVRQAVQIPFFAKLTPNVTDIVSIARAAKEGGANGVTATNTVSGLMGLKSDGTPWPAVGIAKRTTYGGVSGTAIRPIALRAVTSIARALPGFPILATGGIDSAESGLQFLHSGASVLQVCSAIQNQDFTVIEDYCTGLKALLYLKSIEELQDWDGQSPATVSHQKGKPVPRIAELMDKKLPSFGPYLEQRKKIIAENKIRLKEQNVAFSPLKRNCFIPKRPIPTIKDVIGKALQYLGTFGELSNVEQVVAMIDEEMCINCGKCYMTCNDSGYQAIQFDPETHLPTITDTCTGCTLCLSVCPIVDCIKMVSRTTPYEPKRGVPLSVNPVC

[2] = target: T2, Dihydropyrimidine dehydrogenase (DPYD) (Homo sapiens, UniProt Q12882, L310S); assay: steady-state kinetics of purified mutant enzyme, fluorometric NADPH depletion; substrate inhibition model (kcat); type: biochemical
T2 construct: recombinant L310S mutant DPYD, expressed from pET28a(+) in E. coli
T2 sequence (Q12882 4-1025 L310S): T1 sequence (Q12882 4-1025) with L307S

[3] = target: T1, Dihydropyrimidine dehydrogenase (DPYD); assay: steady-state kinetics of purified enzyme, fluorometric NADPH depletion; substrate inhibition model (kcat); type: biochemical; set-up: recombinant wild type DPYD, expressed from pET28a(+) in E. coli
Description: steady-state kinetics of purified enzyme, fluorometric NADPH depletion; substrate inhibition model (kcat) on Dihydropyrimidine dehydrogenase (DPYD) | The kinetic measurements of DPYD were carried out by varying concentrations of uracil.

Row | Structure (SMILES) | pIC50 [1] | steady-state kinetics of purified mutant enzyme, fluorometric NADPH depletion; s [2] [min⁻¹] | steady-state kinetics of purified enzyme, fluorometric NADPH depletion; substrat [3] [min⁻¹]
1 | Oc1cc(O)c(Cl)cn1 [Gimeracil] | 7.25 |  | 
2 | O=c1cc[nH]c(=O)[nH]1 [uracil] |  | 99 ± 5 | 65 ± 4
